Laboratory results reported in ChEMBL document CHEMBL1201862, “PubChem BioAssay data set” (2004).
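Cultured in 96-well plates, cells were exposed to test compound for 48 hours across five concentrations. Here, GI50 denotes the concentration required for 50% inhibition of growth.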 Active and inactive are the calls of the source. Rule as the data show it: active = GI50 up to about 1.1 µM and inactive = higher.

What was measured:
Test in all cases: growth of human tumour cells (NCI), 48 h
[1] = system: NCI-H226
[2] = system: HCT-15
[3] = system: SF-539
[4] = system: CAKI-1
[5] = system: NCI-H522
[6] = system: PC-3
[7] = system: MDA-MB-435
[8] = system: EKVX
[9] = system: SK-MEL-2
[10] = system: SK-MEL-28
[11] = system: RPMI-8226
[12] = system: SF-268
[13] = system: SK-OV-3
[14] = system: MDA-MB-231
[15] = system: SR
[16] = system: SNB-75
[17] = system: U-251
[18] = system: SF-295
[19] = system: HCT-116
[20] = system: HL-60

Structure (SMILES)	GI50 [1]	GI50 [2] [µM]	GI50 [3]	GI50 [4]	GI50 [5]	GI50 [6]	GI50 [7]	GI50 [8]	GI50 [9]	GI50 [10]	GI50 [11]	GI50 [12]	GI50 [13]	GI50 [14]	GI50 [15]	GI50 [16]	GI50 [17]	GI50 [18]	GI50 [19]	GI50 [20]
COc1cc2c(cc1OCCCNC(=O)c1cc3ccccc3[nH]1)N=C[C@@H]1CCCN1C2=O	0.313 µM (active)	0.897	0.24 µM (active)	0.296 µM (active)	0.0141 µM (active)	0.358 µM (active)	0.243 µM (active)	1.02 µM (active)	0.179 µM (active)	0.318 µM (active)	0.474 µM (active)	0.082 µM (active)	1.6 µM (inactive)	0.466 µM (active)	0.19 µM (active)	0.263 µM (active)	0.148 µM (active)	0.405 µM (active)	0.24 µM (active)	
COCCOCCOCCC(=O)NC1CC2CCC1(C)C2(C)C (centres undefined)	> 100 µM (inactive)	> 100	> 100 µM (inactive)	> 100 µM (inactive)		> 100 µM (inactive)	> 100 µM (inactive)	> 100 µM (inactive)		> 100 µM (inactive)	> 100 µM (inactive)	> 100 µM (inactive)	> 100 µM (inactive)	> 100 µM (inactive)	> 100 µM (inactive)	> 100 µM (inactive)	> 100 µM (inactive)	> 100 µM (inactive)	> 100 µM (inactive)	> 100 µM (inactive)
COC(=O)c1cc(C)n(CN(Cc2ccccc2)Cn2nc(C(=O)OC)cc2C)n1	> 100 µM (inactive)	> 40.7	> 45.9 µM (inactive)	> 69.2 µM (inactive)	> 100 µM (inactive)	> 65.5 µM (inactive)	> 100 µM (inactive)	66.5 µM (inactive)	> 100 µM (inactive)	> 81.5 µM (inactive)	> 41 µM (inactive)	> 89.9 µM (inactive)	> 100 µM (inactive)	> 100 µM (inactive)	0.873 µM (active)	> 27.2 µM (inactive)	> 100 µM (inactive)	> 79.8 µM (inactive)	> 43 µM (inactive)	
CC1(C23CC4CC(CC(C4)C2)C3)n2c(=O)n(-c3ccccc3)c(=O)n2C1(C)C12CC3CC(CC(C3)C1)C2 (centres undefined)	> 100 µM (inactive)	> 100	> 100 µM (inactive)	> 100 µM (inactive)		> 100 µM (inactive)	> 100 µM (inactive)	91.2 µM (inactive)	> 100 µM (inactive)	> 100 µM (inactive)	89.7 µM (inactive)	> 100 µM (inactive)	> 100 µM (inactive)	> 100 µM (inactive)	> 100 µM (inactive)	74.1 µM (inactive)	> 100 µM (inactive)	> 100 µM (inactive)		> 100 µM (inactive)
